Measured values published in ChEMBL document CHEMBL1128071, “Rational design, synthesis, and X-ray structure of renin inhibitors with extended P1 sidechains” (Bioorg Med Chem Lett, 1995).

The compounds below were run against T1, Renin (Homo sapiens, UniProt P00797) (assay: Inhibition against recombinant human renin (rHR)).
T1 sequence (P00797 whole entry): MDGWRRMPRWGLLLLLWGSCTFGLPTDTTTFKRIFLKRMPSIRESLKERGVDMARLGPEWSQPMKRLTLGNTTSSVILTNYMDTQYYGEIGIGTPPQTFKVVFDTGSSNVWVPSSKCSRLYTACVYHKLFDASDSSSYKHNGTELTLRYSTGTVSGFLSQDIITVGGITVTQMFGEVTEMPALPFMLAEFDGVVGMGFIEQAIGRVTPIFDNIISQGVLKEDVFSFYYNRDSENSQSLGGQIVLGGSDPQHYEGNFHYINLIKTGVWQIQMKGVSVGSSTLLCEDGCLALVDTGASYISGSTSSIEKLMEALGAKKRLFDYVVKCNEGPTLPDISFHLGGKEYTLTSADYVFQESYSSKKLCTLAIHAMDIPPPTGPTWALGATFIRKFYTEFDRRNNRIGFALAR

Structure (SMILES) | IC50
CSC[C@H](NC(C)=O)C(=O)N[C@@H](Cc1ccc(-c2ccccc2)cc1)[C@@H](O)[C@@H](O)CC(C)C | 1100 nM
CSC[C@H](NC(=O)CNC(=O)N1CCC(=O)CC1)C(=O)N[C@@H](Cc1cccc(-c2ccccc2)c1)[C@@H](O)[C@@H](O)CC(C)C | 110 nM
CSC[C@H](NC(C)=O)C(=O)N[C@@H](Cc1cccc(-c2ccccc2)c1)[C@@H](O)[C@@H](O)CC(C)C | 1600 nM
CSC[C@H](NC(C)=O)C(=O)N[C@@H](CC1CCCCC1)[C@@H](O)[C@@H](O)CC(C)C | 5100 nM
CSC[C@H](NC(=O)CNC(=O)N1CCC(=O)CC1)C(=O)N[C@@H](Cc1ccc(-c2ccccc2)cc1)[C@@H](O)[C@@H](O)CC(C)C | 130 nM
CSC[C@H](NC(=O)CNC(=O)N1CCC(=O)CC1)C(=O)N[C@@H](CC1CCCCC1)[C@@H](O)[C@@H](O)CC(C)C | 1200 nM
CSC[C@H](NC(=O)CNC(=O)N1CCC(=O)CC1)C(=O)N[C@@H](Cc1ccc(Oc2ccccc2)cc1)[C@@H](O)[C@@H](O)CC(C)C | 66 nM
CSC[C@H](NC(=O)[C@H](Cc1ccccc1)NC(=O)N1CCC(=O)CC1)C(=O)N[C@@H](CC1CCCCC1)[C@@H](O)[C@@H](O)CC(C)C | 0.3 nM
CSC[C@H](NC(=O)CNC(=O)N1CCC(=O)CC1)C(=O)N[C@@H](Cc1ccccc1)[C@@H](O)[C@@H](O)CC(C)C | 16000 nM
